Assays:
Format in all cases: in vivo
[1] = Sweetness intensity in 150 ppm Reb.A in water, four trained experts (Example 9)
Procedure: Example 9: Three samples were prepared and compared with 150 ppm Reb.A (PureCircle) in water; equisweet to 3.5% sucrose (in red, FIG. 9). The first sample comprised 150 ppm Reb.A with 10 ppm Naringenin. The second sample was a 150 ppm Reb.A with 25 ppm Naringenin. The third sample comprised 150 ppm Reb.A with 50 ppm Naringenin. All samples were tested for sweetness intensity at room Temperature by four experts especially trained to evaluate sweet products.

[2] = Tasting of Naringenin alone and combined with sweeteners (summary statements); details: combined with other sweeteners, some embodiments
Procedure: However, when combined with others sweeteners, Naringenin provides sweetness enhancement to composition comprising a sweetener. In some embodiments, Naringenin provides a sweetness equivalent to 1-2° brix of sucrose equivalents.

[3] = Sweetness intensity in 300 ppm Reb.A in water, four trained experts (Example 10)
Procedure: Example 10: Six samples were prepared and compared with 300 ppm Reb.A in water; 100% sweetness level (in red, FIG. 10). The first sample comprised 300 ppm Reb. A with 10 ppm Naringenin. The second sample was a 300 ppm Reb.A with 25 ppm Naringenin. The third sample was a 300 ppm Reb.A with 50 ppm Naringenin. The fourth sample comprised 300 ppm Reb.A with 75 ppm Naringenin. The fifth sample was a 300 ppm Reb.A with 100 ppm Naringenin. The sixth sample was a 300 ppm Reb.A with 150 ppm Naringenin. All samples were tested for sweetness intensity at room Temperature by four experts especially trained to evaluate sweet products. […] On the other hand, the addition of 100 and 150 ppm Naringenin to 300 ppm Reb.A solution has a small loss of sweetness (8%).

[4] = Sweetness intensity in sucrose solution, thirty participants (Example 2); details: 125 ppm Naringenin in 5% sucrose solution in water
Procedure: Example 2. Two samples were prepared. The first sample was a 6% sucrose solution in water. The second sample was a 5% sucrose solution in water with 125 ppm Naringenin. The samples were tested for sweetness intensity by thirty participants.

| SMILES | sweetness intensity reached, as sucrose level ([1]; 50 ppm Naringenin in 150 ppm Reb.A solution, room temperature) | sweetness provided, sucrose equivalents [2] | equisweet Reb.A level in water ([3]; 10 to 75 ppm Naringenin in 300 ppm Reb.A solution) | sweetness enhancement effect ([3]; 10 to 75 ppm Naringenin in 300 ppm Reb.A solution, 300 ppm Reb.A = 100%) | loss of sweetness ([3]; 100 and 150 ppm Naringenin in 300 ppm Reb.A solution, 300 ppm Reb.A = 100%) | sweetness level reached, as sucrose solution without Naringenin [4] | equisweet sucrose level ([1]; 150 ppm Reb.A in water without Naringenin) |
| --- | --- | --- | --- | --- | --- | --- | --- |
| O=C1C[C@@H](c2ccc(O)cc2)Oc2cc(O)cc(O)c21 [Naringenin, 2,3-Dihydro-5,7-dihydroxy-2(-4-hydroxyphenyl)-4H-1-bcmzopyran-4-one] | 4 % sucrose | 1-2 ° brix of sucrose equivalents | 350 ppm Reb.A | 17% | 8% | ~6 % sucrose |  |
| C=C1C[C@@]23CC[C@H]4[C@@](C)(CCC[C@@]4(C)C(=O)O[C@@H]4O[C@H](CO)[C@@H](O)[C@H](O)[C@H]4O)[C@@H]2CC[C@]1(O[C@@H]1O[C@H](CO)[C@@H](O)[C@H](O[C@@H]2O[C@H](CO)[C@@H](O)[C@H](O)[C@H]2O)[C@H]1O[C@@H]1O[C@H](CO)[C@@H](O)[C@H](O)[C@H]1O)C3 [Reb.A, rebaudioside A, reference compound] |  |  |  |  |  |  | 3.5 % sucrose |

From US20250008996A1, “Flavored Food and Beverage Products” (Firmenich SA, priority 2014, published 2025)
